≈ marks a conversion by molar mass, not a printed value. Read-outs that look alike come from different tables or passages of the source.
Experiments:
Staph.aureus A 2001 [1] = assay: agar serial dilution test; format: cell-based, Staphylococcus aureus; details: Staphylococcus aureus, A2001, 24 h, agar serial dilution, 24 hours, 37° C.; read-out: minimal inhibitory concentration (MIC)
Pseud.aerug. 2396 = assay: agar serial dilution test; format: cell-based; details: agar serial dilution, 24 hours, 37° C.; read-out: minimal inhibitory concentration (MIC)
Bruc.melit. A 488 = assay: microbe, parasite or virus in culture; format: cell-based; details: Brucella melitensis, 24 h, read-out: minimal inhibitory concentration (MIC)
Salm.typh. R 127 = assay: agar serial dilution test; format: cell-based; details: 24 h, 37° C., read-out: minimal inhibitory concentration (MIC)
Staph.aureus A 355 [2] = assay: agar serial dilution test; details: Staphylococcus aureus, A355, 24 h, read-out: minimal inhibitory concentration (MIC), agar serial dilution, 24 hours, 37° C.; penicillinase-producing strain
Bac.Subt.ATCC 6633 = assay: agar serial dilution test; format: cell-based, Bacillus subtilis; details: Bacillus subtilis, ATCC6633, 24 h, agar serial dilution, 24 hours, 37° C.; read-out: minimal inhibitory concentration (MIC)
Esch.coli U 20 = assay: agar serial dilution test; format: cell-based, Escherichia coli; details: Escherichia coli, U20; agar serial dilution, 24 hours, 37° C.; read-out: minimal inhibitory concentration (MIC)
Pseud.aerug. H 10 = assay: agar serial dilution test; format: cell-based; details: agar serial dilution, 24 hours, 37° C.; read-out: minimal inhibitory concentration (MIC)
Strep.haem. A 266 = assay: agar serial dilution test; format: cell-based, Streptococcus haemolyticus; details: Streptococcus; agar serial dilution, 24 hours, 37° C.; read-out: minimal inhibitory concentration (MIC)
Haem.infl. A 1030 = assay: micro serial dilution test; format: cell-based; details: 18 h, micro serial dilution (in brackets), about 18 hours, 30° C. or 37° C.; read-out: minimal inhibitory concentration (MIC)
Prot.morg. 2241 = assay: agar serial dilution test; format: cell-based; details: 24 h, agar serial dilution, 24 hours, 37° C.; read-out: minimal inhibitory concentration (MIC)
Salm.dubl. P 43 = assay: agar serial dilution test; format: cell-based, Salmonella dublin; details: Salmonella enterica, read-out: minimal inhibitory concentration (MIC)
Prot.mirab. L 93 = assay: agar serial dilution test; format: cell-based, Proteus mirabilis; details: Proteus mirabilis
Past.multo. A 723 = assay: agar serial dilution test; format: cell-based, Pasteurella multocida; details: Pasteurella multocida; agar serial dilution, 24 hours, 37° C.; read-out: minimal inhibitory concentration (MIC)
Kleb.pneum. A 809 = assay: agar serial dilution test; format: cell-based, Klebsiella pneumoniae; details: Klebsiella pneumoniae; agar serial dilution, 24 hours, 37° C.; read-out: minimal inhibitory concentration (MIC)
[3] = test system: Pseud.aerug. Wyeth A 1058; assay: agar serial dilution test; format: cell-based; details: agar serial dilution, 24 hours, 37° C.; read-out: minimal inhibitory concentration (MIC)
Dipl.pneum. L 54 = assay: agar serial dilution test; format: cell-based, Diplococcus pneumoniae; details: Streptococcus pneumoniae; agar serial dilution, 24 hours, 37° C.; read-out: minimal inhibitory concentration (MIC)
Prot.rettg. A 821 = assay: agar serial dilution test; format: cell-based, Proteus rettgeri; details: Providencia rettgeri, 24 h, read-out: minimal inhibitory concentration (MIC)
Staph.aureus A 321 = assay: agar serial dilution test; format: cell-based, Staphylococcus aureus; details: Staphylococcus aureus, A321, 24 h, agar serial dilution, 24 hours, 37° C.; read-out: minimal inhibitory concentration (MIC)
Shig.equir. T 3 = assay: agar serial dilution test; format: cell-based; details: 24 h, 37° C., read-out: minimal inhibitory concentration (MIC)
Staph.aureus A 2000 [4] = assay: agar serial dilution test; format: cell-based, Staphylococcus aureus; details: Staphylococcus aureus, A2000, 24 h, agar serial dilution, 24 hours, 37° C.; read-out: minimal inhibitory concentration (MIC)
Strep. faec. L 80 = assay: agar serial dilution test; format: cell-based, Streptococcus faecalis; details: Enterococcus faecalis; agar serial dilution, 24 hours, 37° C.; read-out: minimal inhibitory concentration (MIC)
Prot.mirab. A 1200 = assay: agar serial dilution test; format: cell-based, Proteus mirabilis; details: Proteus mirabilis, 24 h, agar serial dilution, 24 hours, 37° C.; read-out: minimal inhibitory concentration (MIC)
Prot.mirab. H 3 = assay: agar serial dilution test; format: cell-based, Proteus mirabilis; details: Proteus mirabilis
Staph.aureus A 2000 [5] = assay: micro serial dilution test; format: cell-based, Staphylococcus aureus; details: Staphylococcus aureus, A2000, 18 h, micro serial dilution (in brackets), about 18 hours, 30° C. or 37° C.; read-out: minimal inhibitory concentration (MIC)
Staph.aureus A 2001 [6] = assay: micro serial dilution test; format: cell-based, Staphylococcus aureus; details: Staphylococcus aureus, A2001, 18 h, micro serial dilution (in brackets), about 18 hours, 30° C. or 37° C.; read-out: minimal inhibitory concentration (MIC)
Staph.aureus A 355 [7] = assay: micro serial dilution test; format: cell-based, Staphylococcus aureus; details: Staphylococcus aureus, A355; micro serial dilution (in brackets), about 18 hours, 30° C. or 37° C.; penicillinase-producing strain; read-out: minimal inhibitory concentration (MIC)
Excerpt: Two drops of a stock solution of the test compound (antibiotic) in a known concentration were brought into the first hole of a test plate with 9 numbered holes with a sterile Pasteur pipette. After rinsing this pipette three times with a physiological NaCl-solution, two drops of a stock solution of the test organism in a culture medium were brought in all the holes except for hole 8. In the first hole, the solution of the tested compound had been half diluted, then by stirring the liquid in the first hole and adding two drops of this mixture to the second hole and so on until hole 8, dilutions of the test compound solution were obtained in geometrical progression. The hole 9 contained no antibiotic and served for checking the growth of the testogranism in a blank medium. The test plate was incubated at 30° C. or 37° C. for about 18 hours.
^1 Penicillinase-producing strain

[8] = agar serial dilution, 24 hours, 37° C.
[9] = agar serial dilution, 24 hours, 37° C., read-out: minimal inhibitory concentration (MIC)
[10] = 24 h, read-out: minimal inhibitory concentration (MIC), agar serial dilution, 24 hours, 37° C.

Row | SMILES | MIC (Staph.aureus A 2001 [1]) [µg/mL] | MIC (Pseud.aerug. 2396) [µg/mL] | MIC (Bruc.melit. A 488) [µg/mL] | MIC (Salm.typh. R 127) [µg/mL] | MIC (Staph.aureus A 355 [2]) [µg/mL] | MIC (Bac.Subt.ATCC 6633) [µg/mL] | MIC (Esch.coli U 20) [µg/mL] | MIC (Pseud.aerug. H 10) [µg/mL] | MIC (Strep.haem. A 266) [µg/mL] | MIC (Haem.infl. A 1030) [µg/mL] | MIC (Prot.morg. 2241) [µg/mL] | MIC (Salm.dubl. P 43; [8]) [µg/mL] | MIC (Past.multo. A 723) [µg/mL] | MIC (Kleb.pneum. A 809) [µg/mL] | MIC [3] [µg/mL] | MIC (Staph.aureus A 321) [µg/mL] | MIC (Shig.equir. T 3) [µg/mL] | MIC (Staph.aureus A 2000 [4]) [µg/mL] | MIC (Strep. faec. L 80) [µg/mL] | MIC (Prot.mirab. A 1200) [µg/mL] | also measured
1 | Cc1noc(C(C)C(=O)N[C@@H]2C(=O)N3[C@@H]2SC(C)(C)[C@@H]3C(=O)O)n1 (mixture of isomers) [Example 11H, dl-6[α-methyl-(3-methyl-1,2,4-oxadiazol-5-yl)-acetamido]-penicillanic acid] | 3 | > 100 | 0.25 | 100 | 12.5 | 0.06 | ≥ 100 | > 100 | 0.5 | 3.7 | > 100 | 50 | 1.5 | > 100 | > 100 | 0.25 | 25 | 6 | 6 | > 100 | MIC (Prot.mirab. L 93; [9]): 6 µg/mL; MIC (Dipl.pneum. L 54): 0.25 µg/mL; MIC (Prot.rettg. A 821; [8]): 12.5 µg/mL; MIC (Prot.mirab. H 3; [9]): > 100 µg/mL
2 | CC(=O)OCC1=C(C(=O)O)N2C(=O)[C@@H](NC(=O)C(C)c3nc(C)no3)[C@H]2SC1 (mixture of isomers) [Example 11I, dl-7-[α-methyl-(3-methyl-1,2,4-oxadiazol-5-yl)-acetamido]-cephalosporanic acid] | 1.5 | > 100 | 6 | 25 | 3 | 0.12 | 50 | > 100 | 0.25 | > 125 | > 100 | – | 1.5 | 6 | > 100 | 1 | 12.5 | 1.5 | 75 | 25 | MIC (Staph.aureus A 2000 [5]): 1.2 µg/mL; MIC (Staph.aureus A 2001 [6]): 1.2 µg/mL; MIC (Salm.dubl. P 43; 24 h): 12.5 µg/mL; MIC (Prot.mirab. L 93; [10]): 12.5 µg/mL; MIC (Prot.rettg. A 821; [8]): 6 µg/mL; MIC (Staph.aureus A 355 [7]): 1.2 µg/mL; MIC (Prot.mirab. H 3; [10]): 12.5 µg/mL
3 | CCc1noc(C(C)C(=O)N[C@@H]2C(=O)N3C(C(=O)O)=C(COC(C)=O)CS[C@H]23)n1 (mixture of isomers) [Example 11K, dl-7-[α-methyl-(3-ethyl-1,2,4-oxadiazol-5-yl)-acetamido]-cephalosporanic acid] | 1 | > 100 | 12.5 | > 100 | 1.5 | 0.25 | > 100 | > 100 | 0.06 | 125 | > 100 | 100 | 1.5 | 6 | > 100 | 1.5 | 25 | 1.5 | 100 | > 100 | MIC (Staph.aureus A 2000 [5]): 1.2 µg/mL; MIC (Staph.aureus A 2001 [6]): 0.9 µg/mL; MIC (Prot.mirab. L 93; [10]): 12.5 µg/mL; MIC (Dipl.pneum. L 54): 1 µg/mL; MIC (Prot.rettg. A 821): 12.5 µg/mL; MIC (Staph.aureus A 355 [7]): 0.9 µg/mL; MIC (Prot.mirab. H 3; [9]): > 100 µg/mL
4 | CC1=C(C(=O)O)N2C(=O)[C@@H](NC(=O)Cc3nc(-c4c(Cl)cccc4Cl)no3)[C@H]2SC1 [Example 11E, 7-{[3-(2,6-dichlorophenyl)-1,2,4-oxadiazol-5-yl]-acetamido}desacetoxycephalosporanic acid] | 1 (≈ 2.13 µM) | > 100 | 50 (≈ 107 µM) | > 100 | 0.75 (≈ 1.6 µM) | 1 (≈ 2.13 µM) | > 100 | > 100 | 0.25 (≈ 0.533 µM) | 125 (≈ 266 µM) | > 100 | > 100 | 25 (≈ 53.3 µM) | 100 (≈ 213 µM) | > 100 | 0.5 (≈ 1.07 µM) | > 100 | 0.75 (≈ 1.6 µM) | 12.5 (≈ 26.6 µM) | > 100 | MIC (Staph.aureus A 2000 [5]): 3.7 µg/mL (≈ 7.88 µM); MIC (Staph.aureus A 2001 [6]): 0.25 µg/mL (≈ 0.533 µM); MIC (Prot.mirab. L 93; [9]): > 100 µg/mL; MIC (Prot.rettg. A 821; [8]): > 100 µg/mL; MIC (Staph.aureus A 355 [7]): 0.25 µg/mL (≈ 0.533 µM); MIC (Prot.mirab. H 3; [9]): > 100 µg/mL
5 | CCc1noc(CC(=O)N[C@@H]2C(=O)N3C(C(=O)O)=C(COC(C)=O)CS[C@H]23)n1 [Example 11L, 7-[(3-ethyl-1,2,4-oxadiazol-5-yl)-acetamido]-cephalosporanic acid] | 1 (≈ 2.44 µM) | > 100 | 6 (≈ 14.6 µM) | 6 (≈ 14.6 µM) | 1 (≈ 2.44 µM) | 0.12 (≈ 0.292 µM) | 6 (≈ 14.6 µM) | > 100 | 0.25 (≈ 0.609 µM) | ≥ 125 | > 100 | 3 (≈ 7.31 µM) | 2 (≈ 4.87 µM) | 1.5 (≈ 3.65 µM) | > 100 | 0.25 (≈ 0.609 µM) | 3 (≈ 7.31 µM) | 1 (≈ 2.44 µM) | 50 (≈ 122 µM) | 25 (≈ 60.9 µM) | MIC (Prot.mirab. L 93; [9]): 3 µg/mL (≈ 7.31 µM); MIC (Dipl.pneum. L 54): 1 µg/mL (≈ 2.44 µM); MIC (Prot.rettg. A 821; [8]): 1 µg/mL (≈ 2.44 µM); MIC (Prot.mirab. H 3; [9]): 50 µg/mL (≈ 122 µM)
6 | CCc1noc(C(C)C(=O)N[C@@H]2C(=O)N3[C@@H]2SC(C)(C)[C@@H]3C(=O)O)n1 (stereo partly drawn) [Example 11M, sodium 6-[α-methyl-(3-ethyl-1,2,4-oxadiazol-5-yl)-acetamido]-penicillanate H2 O] | 6 | > 100 | 0.5 | > 100 | 12.5 | 0.06 | > 100 | > 100 | 0.5 | 3.7 | > 100 | 50 | 1 | > 100 | > 100 | 0.12 | 50 | 6 | 6 | > 100 | MIC (Prot.mirab. L 93; [9]): 25 µg/mL; MIC (Dipl.pneum. L 54): 0.5 µg/mL; MIC (Prot.rettg. A 821; [8]): 3 µg/mL; MIC (Prot.mirab. H 3; [9]): > 100 µg/mL

Source: patent US4160829A, “Antibacterial 1,2,4-oxadiazolylacetamido cephalosporins” (Gist-Brocades N.V., priority 1972, dated 1979)
